Values of other authors, collected in patent US20040018533A1, “Diagnosing predisposition to fat deposition and therapeutic methods for reducing fat deposition and treatment of associated conditions” (priority 2002, published 2004).

Molecular target: P2X4 (Homo sapiens, UniProt Q99571)
Details: Xenopus oocytes

P2X4, sequence (Q99571 whole entry, species assumed): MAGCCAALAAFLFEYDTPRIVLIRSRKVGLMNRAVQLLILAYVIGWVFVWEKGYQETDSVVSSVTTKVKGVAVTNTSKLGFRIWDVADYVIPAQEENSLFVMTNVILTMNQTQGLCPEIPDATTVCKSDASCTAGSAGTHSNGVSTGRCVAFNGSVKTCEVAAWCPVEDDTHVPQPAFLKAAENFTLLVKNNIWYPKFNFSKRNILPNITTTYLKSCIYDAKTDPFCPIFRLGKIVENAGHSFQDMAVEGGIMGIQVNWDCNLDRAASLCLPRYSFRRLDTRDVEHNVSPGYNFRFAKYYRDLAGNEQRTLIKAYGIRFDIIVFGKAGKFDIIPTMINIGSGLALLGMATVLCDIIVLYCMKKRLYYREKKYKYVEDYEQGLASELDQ

effect on P2X4 function: inhibits P2X4 function
SMILES: CCO [ethanol]
